Test results: US9139568B2 (Merck Patent GmbH, priority 2011, dated 2015)

Molecular target: P70S6K (Homo sapiens (Human), UniProt P23443, T412E)
Experiment: P70S6K Enzyme Assay
Format: biochemical
Conditions: P70S6K T412E mutant, 24 μM ATP, mobility shift (Caliper)
Procedure: P70S6K inhibitor compounds are diluted and plated in 96 well plates. […] The reaction is incubated for 90 min at 25° C., before the addition of 10 mM EDTA to stop the reaction. The proportion of substrate and product (phosphorylated) peptide is analysed on a Caliper Life Sciences Lab Chip 3000, using a pressure of −1.4 psi, and upstream and downstream voltages of −3000 and −700 respectively. Product peaks are resolved before substrate peaks on the resulting chromatograms.

Chain of P70S6K (P23443 1-421 T412E): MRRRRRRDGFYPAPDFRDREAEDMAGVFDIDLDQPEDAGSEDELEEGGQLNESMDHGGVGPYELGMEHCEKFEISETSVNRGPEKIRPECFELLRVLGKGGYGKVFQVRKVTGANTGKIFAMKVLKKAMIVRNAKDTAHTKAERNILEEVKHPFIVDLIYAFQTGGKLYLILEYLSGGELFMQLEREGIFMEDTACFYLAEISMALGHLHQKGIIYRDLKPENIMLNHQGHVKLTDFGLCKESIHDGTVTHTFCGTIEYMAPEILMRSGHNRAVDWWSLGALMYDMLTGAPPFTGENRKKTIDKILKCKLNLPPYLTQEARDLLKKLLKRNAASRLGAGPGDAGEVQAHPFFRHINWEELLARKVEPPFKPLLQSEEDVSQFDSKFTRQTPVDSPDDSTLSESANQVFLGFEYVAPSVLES

Question: With `NC(=O)c1ccc(NC2CNC[C@@H]2c2ccc(OC(F)(F)F)cc2)c2cncnc12` (mixture of isomers) [Example 1, 5-((4-(4-(trifluoromethoxy)phenyl)pyrrolidin-3-yl)amino)quinazoline-8-carboxamide] as the compound, how does the IC50 read?
Answer: The IC50 was 23 nM.

Question: With `NC(=O)c1ccc(NC2CNC[C@@H]2c2cc(F)cc(Cl)c2)c2cncnc12` (mixture of isomers) [Example 2, 5-((4-(3-chloro-5-fluorophenyl)pyrrolidin-3-yl)amino)quinazoline-8-carboxamide] as the compound, how does the IC50 read?
Answer: Its IC50 is 160 nM.

Question: For `NC(=O)c1ccc(NC2CNCCC2c2ccccc2)c2cncnc12` (racemic) [Example 3, 5-((4-phenylpiperidin-3-yl)amino)quinazoline-8-carboxamide], which IC50 is on record?
Answer: Its IC50 is 4.1 nM.

Question: For `NC(=O)c1ccc(NC2CNCCC2c2ccc(C(F)(F)F)c(F)c2)c2cncnc12` (racemic) [Example 4, 5-((4-(3-fluoro-4-(trifluoromethyl)phenyl)piperidin-3-yl)amino)quinazoline-8-carboxamide], which IC50 is on record?
Answer: Its IC50 is 5.9 nM.

Question: How did the IC50 turn out when `NCC(c1ccc(C(F)(F)F)cc1)N1CCN(c2ccc(C(N)=O)c3ncncc23)CC1` (racemic) [Example 8, 5-(4-(2-amino-1-(4-(trifluoromethyl)phenyl)ethyl)piperazin-1-yl)quinazoline-8-carboxamide] was run?
Answer: Its IC50 is 210 nM.

Question: How did the IC50 turn out when `NC(=O)c1ccc(N2CCC(N)(CNC(=O)c3ccc(F)cc3F)C2)c2cncnc12` (racemic) [Example 9, 5-(3-amino-3-((2,4-difluorobenzamido)methyl)pyrrolidin-1-yl)quinazoline-8-carboxamide] was run?
Answer: The IC50 was over 1000 nM.

Question: For `NC(=O)c1ccc(N2CCC(N)(CNC(=O)c3ccc(F)cc3O)C2)c2cncnc12` (racemic) [Example 10, 5-(3-amino-3-((4-fluoro-2-hydroxybenzamido)methyl)pyrrolidin-1-yl)quinazoline-8-carboxamide], which IC50 is on record?
Answer: Its IC50 is over 1000 nM.

Question: `NCC1(C(=O)Nc2ccccc2)CCCN(c2ccc(C(N)=O)c3ncncc23)C1` (racemic) [Example 11, 5-(3-(aminomethyl)-3-(phenylcarbamoyl)piperidin-1-yl)quinazoline-8-carboxamide] was tested. Which IC50 did it give?
Answer: Its IC50 is over 1000 nM.

Question: For `NC(=O)c1ccc(NCC2(C(=O)Nc3ccccc3)CCNC2)c2cncnc12` (racemic) [Example 12, 5-(((3-(phenylcarbamoyl)pyrrolidin-3-yl)methyl)amino)quinazoline-8-carboxamide], which IC50 is on record?
Answer: The IC50 was 650 nM.

Question: `NC(=O)c1ccc(NC2CNC[C@@H]2C(=O)Nc2cccc(F)c2)c2cncnc12` (mixture of isomers) [Example 13, 5-((-4-((3-fluorophenyl)carbamoyl)pyrrolidin-3-yl)amino)quinazoline-8-carboxamide] was tested. Which IC50 did it give?
Answer: Its IC50 is 290 nM.

Question: Which IC50 does the source give for `NC(=O)c1ccc(N2CCC(N)(C(=O)Nc3ccccc3)C2)c2cncnc12` (racemic) [Example 15, 5-(3-amino-3-(phenylcarbamoyl)pyrrolidin-1-yl)quinazoline-8-carboxamide] here?
Answer: Its IC50 is 2300 nM.

Question: For `NC(=O)c1ccc(NC2CNC[C@@H]2c2ccc3cccnc3c2)c2cccnc12` (mixture of isomers) [Example 17, 5-((-4-(quinolin-7-yl)pyrrolidin-3-yl)amino)quinoline-8-carboxamide], which IC50 is on record?
Answer: The IC50 was 190 nM.

Question: Which IC50 does the source give for `NC(=O)c1ccc(N2CCNC(c3ccccc3)C2)c2cccnc12` (racemic) [Example 18, 5-(3-phenylpiperazin-1-yl)quinoline-8-carboxamide] here?
Answer: Its IC50 is 670 nM.

Question: `NC(=O)c1ccc(NCC2(C(=O)Nc3ccccc3)CCNC2)c2cccnc12` (racemic) [Example 20, 5-(((3-(phenylcarbamoyl)pyrrolidin-3-yl)methyl)amino)quinoline-8-carboxamide] was tested. Which IC50 did it give?
Answer: The IC50 was over 1000 nM.

Question: How did the IC50 turn out when `NC(=O)c1ccc(NC2CNC[C@@H]2c2cccc(OC(F)(F)F)c2)c2cccnc12` (mixture of isomers) [Example 21, 5-((-4-(3-(trifluoromethoxy)phenyl)pyrrolidin-3-yl)amino)quinoline-8-carboxamide] was run?
Answer: Its IC50 is 22 nM.

Question: How did the IC50 turn out when `NC(=O)c1ccc(N[C@@H]2CNC[C@@H]2c2cccc(OC(F)(F)F)c2)c2cccnc12` (racemic) [Example 24, 5-((-4-(3-(trifluoromethoxy)phenyl)pyrrolidin-3-yl)amino)quinoline-8-carboxamide] was run?
Answer: The IC50 was 23 nM.

Question: With `NC(=O)c1ccc(NC2CNCC[C@@H]2c2cccc(F)c2)c2cccnc12` (mixture of isomers) [Example 25, 5-((4-(3-fluorophenyl)piperidin-3-yl)amino)quinoline-8-carboxamide] as the compound, how does the IC50 read?
Answer: Its IC50 is 520 nM.

Question: `NC(=O)c1ccc(NC(=O)C(N)c2ccccc2)c2cccnc12` (racemic) [Example 29, 5-(2-amino-2-phenylacetamido)quinoline-8-carboxamide] was tested. Which IC50 did it give?
Answer: Its IC50 is over 1000 nM.

Question: `NC(=O)c1ccc(N2CCC(N)(C(=O)Nc3ccc(F)cc3)C2)c2cncnc12` (racemic) [Example 43, 5-[3-amino-3-[(4-fluorophenyl)carbamoyl]pyrrolidin-1-yl]quinazoline-8-carboxamide] was tested. Which IC50 did it give?
Answer: The IC50 was 1200 nM.

Question: How did the IC50 turn out when `NC(=O)c1ccc(N2CCC(N)(C(=O)Nc3ccc(F)c(F)c3)C2)c2cncnc12` (racemic) [Example 44, 5-(3-amino-3-((3,4-difluorophenyl)carbamoyl)pyrrolidin-1-yl)quinazoline-8-carboxamide] was run?
Answer: The IC50 was 1300 nM.

Question: With `NC(=O)c1ccc(N2CCC(N)(C(=O)Nc3cccc(F)c3)C2)c2cncnc12` (racemic) [Example 45, 5-(3-amino-3-((3-fluorophenyl)carbamoyl)pyrrolidin-1-yl)quinazoline-8-carboxamide] as the compound, how does the IC50 read?
Answer: The IC50 was 2000 nM.

Question: Which IC50 does the source give for `NC(=O)c1ccc(N2CCC(NC(=O)Cc3ccccc3)C2)c2cncnc12` (racemic) [Example 47, 5-(3-(2-phenylacetamido)pyrrolidin-1-yl)quinazoline-8-carboxamide] here?
Answer: Its IC50 is 7900 nM.

Question: `NC(=O)c1ccc(N2CCC(NC(=O)c3cccc(C(F)(F)F)c3)C2)c2cncnc12` (racemic) [Example 48, 5-(3-(3-(trifluoromethyl)benzamido)pyrrolidin-1-yl)quinazoline-8-carboxamide] was tested. Which IC50 did it give?
Answer: The IC50 was 2200 nM.

Question: How did the IC50 turn out when `CN(C)CCN(Cc1ccccc1)C(=O)C1CCN(c2ccc(C(N)=O)c3ncncc23)C1` (racemic) [Example 49, 5-(3-(benzyl(2-(dimethylamino)ethyl)carbamoyl)pyrrolidin-1-yl)quinazoline-8-carboxamide] was run?
Answer: The IC50 was 1600 nM.

Question: For `NC(=O)c1ccc(N2CCC(NC(=O)c3ccc(F)c(F)c3)C2)c2cncnc12` (racemic) [Example 50, 5-(3-(3,4-difluorobenzamido)pyrrolidin-1-yl)quinazoline-8-carboxamide], which IC50 is on record?
Answer: Its IC50 is 380 nM.

Question: For `NC(=O)c1ccc(N2CCC(NC(=O)Cc3ccc(F)cc3)C2)c2cncnc12` (racemic) [Example 51, 5-(3-(2-(4-fluorophenyl)acetamido)pyrrolidin-1-yl)quinazoline-8-carboxamide], which IC50 is on record?
Answer: Its IC50 is 5400 nM.

Question: With `NC(=O)c1ccc(N2CCC(CNC(=O)c3ccc(F)c(F)c3)C2)c2cncnc12` (racemic) [Example 54, 5-(3-((3,4-difluorobenzamido)methyl)pyrrolidin-1-yl)quinazoline-8-carboxamide] as the compound, how does the IC50 read?
Answer: The IC50 was 233 nM.

Question: For `NC(=O)c1ccc(N2CCC(CNC(=O)c3ccc(C(F)(F)F)cc3F)C2)c2cncnc12` (racemic) [Example 55, 5-(3-((2-fluoro-4-(trifluoromethyl)benzamido)methyl)pyrrolidin-1-yl)quinazoline-8-carboxamide], which IC50 is on record?
Answer: The IC50 was 290 nM.

Question: For `NC(=O)c1ccc(N2CCC(c3ccccc3)C(N)C2)c2cncnc12` (racemic) [Example 82, 5-(3-amino-4-phenylpiperidin-1-yl)quinazoline-8-carboxamide], which IC50 is on record?
Answer: Its IC50 is 120 nM.
